According to US11655235B2, “Pyrrolidine and piperidine compounds” (YUHAN CORPORATION, priority 2019, dated 2023):

Columns and labels:
Format in all cases: biochemical
DPP4 = DPP4 (Homo sapiens, UniProt P27487); assay: DPP4 inhibition, fluorogenic substrate H-Gly-Pro-AMC; set-up: purchased R&D Systems; details: recombinant human DPP4
Recombinant human FAP = molecular target: T1, Recombinant human FAP (Homo sapiens, UniProt Q12884); assay: FAP inhibition, fluorogenic substrate Z-Gly-Pro-AMC; details: recombinant human FAP, substrate Z-Gly-Pro-AMC
T1 construct: purchased R&D systems
T1 sequence (Q12884 1-760): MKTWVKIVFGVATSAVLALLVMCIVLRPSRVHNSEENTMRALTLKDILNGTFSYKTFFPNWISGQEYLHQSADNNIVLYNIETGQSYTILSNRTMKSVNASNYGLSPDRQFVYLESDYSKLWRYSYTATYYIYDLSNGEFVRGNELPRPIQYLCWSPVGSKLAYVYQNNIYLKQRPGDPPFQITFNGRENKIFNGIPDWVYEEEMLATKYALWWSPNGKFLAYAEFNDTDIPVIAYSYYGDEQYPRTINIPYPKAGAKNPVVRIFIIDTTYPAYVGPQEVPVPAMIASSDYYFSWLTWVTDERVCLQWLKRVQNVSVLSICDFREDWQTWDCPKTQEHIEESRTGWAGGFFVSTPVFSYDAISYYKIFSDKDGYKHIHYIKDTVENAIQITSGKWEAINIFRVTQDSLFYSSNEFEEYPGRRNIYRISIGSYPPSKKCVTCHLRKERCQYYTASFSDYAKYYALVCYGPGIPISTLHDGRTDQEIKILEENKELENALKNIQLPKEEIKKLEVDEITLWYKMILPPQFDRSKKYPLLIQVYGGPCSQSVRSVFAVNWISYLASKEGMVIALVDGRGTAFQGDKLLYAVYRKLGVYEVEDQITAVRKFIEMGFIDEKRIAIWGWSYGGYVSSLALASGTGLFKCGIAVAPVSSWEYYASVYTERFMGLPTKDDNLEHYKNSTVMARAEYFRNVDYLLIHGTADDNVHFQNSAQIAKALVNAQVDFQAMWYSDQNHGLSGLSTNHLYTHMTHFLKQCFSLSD
Method in brief: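 Eight-point compound dilutions (≤0.1% DMSO) were incubated at 25° C with 10 ng recombinant human FAP in Tris pH 7.5/1 M NaCl/BSA buffer and Z-Gly-Pro-AMC. Inhibition was taken as % drop in fluorescence rate (380/460 nm) against uninhibited control; IC50 came from a four-parameter logistic fit.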

recombinant human DPP7 = molecular target: T2, recombinant human DPP7 (Homo sapiens, UniProt Q9UHL4); assay: DPP7 inhibition, fluorogenic substrate Lys-Pro-AMC; details: recombinant human DPP7
T2 construct: purchased R&D Systems
Method in brief: (§1)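 Inhibitors are titrated in an 8-point series into the enzyme's assay buffer (DMSO no more than 0.5%). Substrate cleavage at 25 °C is followed by fluorescence, excitation 380 nm and emission 460 nm. IC50 values come from a four-variable logistic model.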

recombinant human PREP = molecular target: T3, recombinant human PREP (Homo sapiens, UniProt P48147); assay: PREP inhibition, fluorogenic substrate Z-Gly-Pro-AMC; details: Inhibitory Activity (IC50, nM) PREP, recombinant human PREP
T3 construct: purchased R&D System
T3 sequence (P48147 1-710): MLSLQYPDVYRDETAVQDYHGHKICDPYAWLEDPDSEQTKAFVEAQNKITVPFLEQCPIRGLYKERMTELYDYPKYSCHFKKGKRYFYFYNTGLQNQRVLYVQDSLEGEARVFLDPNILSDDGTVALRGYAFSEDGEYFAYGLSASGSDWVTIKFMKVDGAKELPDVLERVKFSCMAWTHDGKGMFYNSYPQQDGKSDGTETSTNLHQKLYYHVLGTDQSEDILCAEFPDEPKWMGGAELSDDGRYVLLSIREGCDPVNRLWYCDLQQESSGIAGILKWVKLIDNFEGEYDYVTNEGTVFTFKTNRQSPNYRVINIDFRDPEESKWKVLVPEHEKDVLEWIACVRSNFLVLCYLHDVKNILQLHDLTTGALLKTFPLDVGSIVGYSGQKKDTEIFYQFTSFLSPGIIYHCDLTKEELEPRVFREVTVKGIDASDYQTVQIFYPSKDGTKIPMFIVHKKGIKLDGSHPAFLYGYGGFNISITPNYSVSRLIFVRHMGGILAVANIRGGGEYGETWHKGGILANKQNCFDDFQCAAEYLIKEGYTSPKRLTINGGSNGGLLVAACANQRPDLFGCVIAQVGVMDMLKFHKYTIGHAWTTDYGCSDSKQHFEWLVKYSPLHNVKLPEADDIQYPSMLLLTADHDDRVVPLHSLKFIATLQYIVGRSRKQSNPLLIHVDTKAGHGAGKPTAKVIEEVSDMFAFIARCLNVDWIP
Method in brief: as §1

recombinant human DPP8 = molecular target: T4, recombinant human DPP8 (Homo sapiens, UniProt Q6V1X1); assay: DPP8 inhibition, fluorogenic substrate Z-Ala-Pro-AMC; details: recombinant human DPP8
T4 construct: purchased PBS Bioscience
T4 sequence (Q6V1X1 whole entry): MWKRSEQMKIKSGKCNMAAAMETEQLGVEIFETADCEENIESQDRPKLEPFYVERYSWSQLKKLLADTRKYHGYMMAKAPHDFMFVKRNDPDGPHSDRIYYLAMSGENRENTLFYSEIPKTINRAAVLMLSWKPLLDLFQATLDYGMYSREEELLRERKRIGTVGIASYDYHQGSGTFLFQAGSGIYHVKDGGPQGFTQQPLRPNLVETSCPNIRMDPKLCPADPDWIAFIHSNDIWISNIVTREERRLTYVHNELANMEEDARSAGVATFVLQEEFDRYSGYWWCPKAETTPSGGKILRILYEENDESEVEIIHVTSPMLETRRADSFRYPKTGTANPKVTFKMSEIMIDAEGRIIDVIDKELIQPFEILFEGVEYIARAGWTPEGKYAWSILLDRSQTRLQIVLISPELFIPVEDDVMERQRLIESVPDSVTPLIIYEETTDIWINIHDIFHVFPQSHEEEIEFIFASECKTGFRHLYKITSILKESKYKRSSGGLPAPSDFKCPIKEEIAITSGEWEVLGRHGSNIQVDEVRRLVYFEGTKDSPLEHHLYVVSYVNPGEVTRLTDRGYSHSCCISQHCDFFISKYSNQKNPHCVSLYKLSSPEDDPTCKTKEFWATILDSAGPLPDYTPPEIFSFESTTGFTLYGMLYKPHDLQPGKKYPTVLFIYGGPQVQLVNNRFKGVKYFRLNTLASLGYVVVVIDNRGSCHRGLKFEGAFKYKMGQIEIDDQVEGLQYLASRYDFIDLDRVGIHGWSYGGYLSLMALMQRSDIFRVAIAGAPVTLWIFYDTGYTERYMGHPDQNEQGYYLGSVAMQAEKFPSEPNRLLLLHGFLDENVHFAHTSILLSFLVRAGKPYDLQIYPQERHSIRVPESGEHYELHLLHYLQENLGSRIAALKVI
Method in brief: as §1

recombinant human DPP9 = molecular target: T5, recombinant human DPP9 (Homo sapiens, UniProt Q86TI2); assay: DPP9 inhibition, fluorogenic substrate H-Gly-Pro-AMC; details: recombinant human DPP9
T5 construct: purchased R&D Systems
T5 sequence (Q86TI2 whole entry): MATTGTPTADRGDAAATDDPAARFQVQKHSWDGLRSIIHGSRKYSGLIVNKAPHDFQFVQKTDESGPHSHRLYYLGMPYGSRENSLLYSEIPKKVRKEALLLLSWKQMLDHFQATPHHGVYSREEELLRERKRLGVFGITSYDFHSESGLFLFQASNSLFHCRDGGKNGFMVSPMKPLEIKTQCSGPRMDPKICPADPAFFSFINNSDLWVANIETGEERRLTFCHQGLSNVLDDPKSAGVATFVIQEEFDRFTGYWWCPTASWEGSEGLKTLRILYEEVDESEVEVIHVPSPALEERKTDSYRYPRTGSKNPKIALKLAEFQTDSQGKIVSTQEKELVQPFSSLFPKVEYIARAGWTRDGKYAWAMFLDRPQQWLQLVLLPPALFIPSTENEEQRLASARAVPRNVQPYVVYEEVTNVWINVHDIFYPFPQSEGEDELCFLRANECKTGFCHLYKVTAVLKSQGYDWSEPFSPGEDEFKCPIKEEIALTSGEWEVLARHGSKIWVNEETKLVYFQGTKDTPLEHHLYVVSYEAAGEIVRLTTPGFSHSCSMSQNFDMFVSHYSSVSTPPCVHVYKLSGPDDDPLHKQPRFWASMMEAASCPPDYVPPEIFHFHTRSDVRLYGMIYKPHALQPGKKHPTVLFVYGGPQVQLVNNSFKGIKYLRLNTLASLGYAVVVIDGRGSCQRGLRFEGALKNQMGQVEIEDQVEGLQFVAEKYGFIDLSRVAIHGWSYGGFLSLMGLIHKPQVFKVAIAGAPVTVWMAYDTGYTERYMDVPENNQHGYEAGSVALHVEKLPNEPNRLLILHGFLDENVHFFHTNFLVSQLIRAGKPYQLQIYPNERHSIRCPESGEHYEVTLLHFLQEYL
Method in brief: as §1

Sequence of DPP4 (P27487 whole entry): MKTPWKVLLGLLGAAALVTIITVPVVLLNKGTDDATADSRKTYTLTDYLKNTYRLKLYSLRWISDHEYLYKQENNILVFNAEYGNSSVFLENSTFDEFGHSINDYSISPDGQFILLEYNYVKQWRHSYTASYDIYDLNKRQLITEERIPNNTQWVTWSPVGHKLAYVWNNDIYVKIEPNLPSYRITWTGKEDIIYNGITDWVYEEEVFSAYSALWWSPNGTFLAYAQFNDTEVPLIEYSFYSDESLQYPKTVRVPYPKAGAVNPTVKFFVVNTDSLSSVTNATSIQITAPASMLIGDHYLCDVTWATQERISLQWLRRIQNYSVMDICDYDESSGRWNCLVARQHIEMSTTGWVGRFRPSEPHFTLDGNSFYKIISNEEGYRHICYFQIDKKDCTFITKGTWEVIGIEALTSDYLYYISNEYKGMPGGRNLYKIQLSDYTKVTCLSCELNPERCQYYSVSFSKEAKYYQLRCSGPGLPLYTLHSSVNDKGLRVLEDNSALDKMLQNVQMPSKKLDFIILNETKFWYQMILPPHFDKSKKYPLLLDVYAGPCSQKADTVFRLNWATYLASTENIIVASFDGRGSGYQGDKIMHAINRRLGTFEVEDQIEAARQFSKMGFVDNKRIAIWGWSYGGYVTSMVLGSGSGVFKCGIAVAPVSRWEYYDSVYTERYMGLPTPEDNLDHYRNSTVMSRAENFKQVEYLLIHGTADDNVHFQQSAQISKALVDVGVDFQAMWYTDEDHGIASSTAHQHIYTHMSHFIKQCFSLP

| Compound | IC50 (DPP4) | IC50 (Recombinant human FAP) | IC50 (recombinant human DPP7) | IC50 (recombinant human PREP) | IC50 (recombinant human DPP8) | IC50 (recombinant human DPP9) |
| --- | --- | --- | --- | --- | --- | --- |
| N#Cc1cnc2cccc(N[C@H]3CCN(CC(=O)N4C[C@@H](F)C[C@H]4C#N)C3)c2c1 [Example 253, 5-[[(3S)-1-[2-oxo-2-[(2S,4S)-2-cyano-4-fluoro-pyrrolidin-1-yl]ethyl]pyrrolidin-3-yl]amino]quinoline-3-carbonitrile] | 2310 nM | 0.9 nM | 2190 nM | 2220 nM | 2670 nM | 5360 nM |
| COc1cnc2cccc(N[C@H]3CCN(CC(=O)N4C[C@@H](F)C[C@H]4C#N)C3)c2c1 [Example 254, (2S,4S)-4-fluoro-1-[2-[(3S)-3-[(3-methoxy-5-quinolyl)amino]pyrrolidin-1-yl]acetyl]pyrrolidine-2-carbonitrile] | 4710 nM | 2.1 nM | 1400 nM | 275 nM | 12200 nM | 13100 nM |
| N#C[C@@H]1C[C@H](F)CN1C(=O)CN1CC[C@H](Nc2cccc3ncc(Cl)cc23)C1 [Example 256, (2S,4S)-4-fluoro-1-[2-[(3S)-3-[(3-chloro-5-quinolyl)amino]pyrrolidin-1-yl]acetyl]pyrrolidine-2-carbonitrile] | 1880 nM | 0.8 nM | 1790 nM | 603 nM | 3350 nM | 6960 nM |
| COc1cc(N[C@H]2CCN(CC(=O)N3C[C@@H](F)C[C@H]3C#N)C2)c2cccnc2c1 [Example 257, (2S,4S)-4-fluoro-1-[2-[(3S)-3-[(7-methoxy-5-quinolyl)amino]pyrrolidin-1-yl]acetyl]pyrrolidine-2-carbonitrile] | 694 nM | 0.9 nM | 289 nM | 1530 nM | 4540 nM | 6560 nM |
| N#C[C@@H]1C[C@H](F)CN1C(=O)CN1CC[C@H](Nc2cc(C(F)(F)F)cc3ncccc23)C1 [Example 258, (2S,4S)-4-fluoro-1-[2-[(3S)-3-[[7-(trifluoromethyl)-5-quinolyl]amino]pyrrolidin-1-yl]acetyl]pyrrolidine-2-carbonitrile] | 1830 nM | 1 nM | 1390 nM | 1280 nM | > 100000 nM | 7970 nM |
| Cc1ccc2ncccc2c1N[C@H]1CCN(CC(=O)N2C[C@@H](F)C[C@H]2C#N)C1 [Example 259, (2S,4S)-4-fluoro-1-[2-[(3S)-3-[(6-methyl-5-quinolyl)amino]pyrrolidin-1-yl]acetyl]pyrrolidine-2-carbonitrile] | 1270 nM | 2.6 nM | 3310 nM | 2470 nM | 18600 nM | 8430 nM |
| COc1ccc2ncccc2c1N[C@H]1CCN(CC(=O)N2C[C@@H](F)C[C@H]2C#N)C1 [Example 260, (2S,4S)-4-fluoro-1-[2-[(3S)-3-[(6-methoxy-5-quinolyl)amino]pyrrolidin-1-yl]acetyl]pyrrolidine-2-carbonitrile] | 741 nM | 5.8 nM | 8280 nM | 6500 nM | 20800 nM | 7710 nM |
| N#C[C@@H]1C[C@H](F)CN1C(=O)CN1CC[C@H](Nc2c(F)ccc3ncccc23)C1 [Example 261, (2S,4S)-4-fluoro-1-[2-[(3S)-3-[(6-fluoro-5-quinolyl)amino]pyrrolidin-1-yl]acetyl]pyrrolidine-2-carbonitrile] | 1170 nM | 2 nM | 6570 nM | 3940 nM | 20800 nM | 9420 nM |

Continued, values first:

| IC50 (DPP4) | IC50 (Recombinant human FAP) | IC50 (recombinant human DPP7) | IC50 (recombinant human PREP) | IC50 (recombinant human DPP8) | IC50 (recombinant human DPP9) | Compound |
| --- | --- | --- | --- | --- | --- | --- |
| 1360 nM | 1.2 nM | 452 nM | 1850 nM | 3010 nM | 3560 nM | Cc1ccc(N[C@H]2CCN(CC(=O)N3C[C@@H](F)C[C@H]3C#N)C2)c2cccnc12 [Example 262, (2S,4S)-4-fluoro-1-[2-[(3S)-3-[(8-methyl-5-quinolyl)amino]pyrrolidin-1-yl]acetyl]pyrrolidine-2-carbonitrile] |
| 1240 nM | 0.8 nM | 1130 nM | 1730 nM | > 100000 nM | 5420 nM | N#C[C@@H]1C[C@H](F)CN1C(=O)CN1CC[C@H](Nc2ccc(C(F)(F)F)c3ncccc23)C1 [Example 265, (2S,4S)-4-fluoro-1-[2-[(3S)-3-[[8-(trifluoromethyl)-5-quinolyl]amino]pyrrolidin-1-yl]acetyl]pyrrolidine-2-carbonitrile] |
| 2840 nM | 1.2 nM | 812 nM | 2310 nM | 7180 nM | 4920 nM | N#C[C@@H]1C[C@H](F)CN1C(=O)CN1CC[C@H](Nc2cc(F)cc3ncccc23)C1 [Example 269, (2S,4S)-4-fluoro-1-[2-[(3S)-3-[(7-fluoro-5-quinolyl)amino]pyrrolidin-1-yl]acetyl]pyrrolidine-2-carbonitrile] |
| > 10000 nM | 1.3 nM | 591 nM | 10900 nM | 44000 nM | 19200 nM | N#C[C@@H]1CCCN1C(=O)CN1CC[C@H](Nc2ccnc3c(C(F)(F)F)cccc23)C1 [Example 270, (2S)-1-[2-[(3S)-3-[[8-(trifluoromethyl)-4-quinolyl]amino]pyrrolidin-1-yl]acetyl]pyrrolidine-2-carbonitrile] |
| 3790 nM | 1.4 nM | 213 nM | 3740 nM | 7980 nM | 4410 nM | N#C[C@@H]1C[C@H](F)CN1C(=O)CN1CC[C@H](Nc2ccnc3c(C(F)(F)F)cccc23)C1 [Example 271, (2S,4S)-4-fluoro-1-[2-[(3S)-3-[[8-(trifluoromethyl)-4-quinolyl]amino]pyrrolidin-1-yl]acetyl]pyrrolidine-2-carbonitrile] |
| > 10000 nM | 1.7 nM | 9840 nM | 1410 nM | 13100 nM | 8190 nM | COc1ccc2nccc(O[C@H]3CCN(CC(=O)N4C[C@@H](F)C[C@H]4C#N)C3)c2c1 [Example 299, (2S,4S)-4-fluoro-1-[2-[(3S)-3-[(6-methoxy-4-quinolyl)oxy]pyrrolidin-1-yl]acetyl]pyrrolidine-2-carbonitrile] |
| > 10000 nM | 1.9 nM | 2930 nM | 4890 nM | 17800 nM | 12100 nM | COc1cc2nccc(O[C@H]3CCN(CC(=O)N4C[C@@H](F)C[C@H]4C#N)C3)c2cc1OC [Example 300, (2S,4S)-4-fluoro-1-[2-[(3S)-3-[(6,7-dimethoxy-4-quinolyl)oxy]pyrrolidin-1-yl]acetyl]pyrrolidine-2-carbonitrile] |
| 8130 nM | 69.5 nM | 1560 nM | 36000 nM | > 100000 nM | > 100000 nM | N#C[C@@H]1CCCN1C(=O)CN1CCC(NC(=O)c2cccc3cccnc23)CC1 [Example 301, N-[1-[2-oxo-2-[(2S)-2-cyanopyrrolidin-1-yl]ethyl]-4-piperidyl]quinoline-8-carboxamide] |
